These results are taken from patent US20110105419A1, “PHARM[…] BASED ON CO[…] OF D-METALS” (priority 2008, published 2011).

One test deals with male rats with cytopenia. Briefly: General blood analysis of male rats with cytopenia after application of cyclophosphane. Type of test: in vivo, rat. Particulars: doses mg/kg: cysteine 9.5, lithium carbonate 3, C-Li 10, Fe-C-Li:C-Li 10.
Another test deals with peritoneal macrophages. Briefly: Intracellular calcium concentration and Ca2+ signals in peritoneal macrophages (Fura-2AM). Type of test: cell-based, rat. Background: Calcium assays in cells follow changes in intracellular calcium, usually with a dye or a luminescent sensor.
Test [1] addresses T1, epidermal growth factor receptor (Homo sapiens, UniProt P00533).
T1 construct: cells of the human epidermoid carcinoma line A431 have an extraordinarily high level of expression of the epidermal growth factor receptor; endogenous in cells; host or cells: A431 (All-Russian Cell Culture Collection)
Briefly: Tyrosine kinase activity of the epidermal growth factor receptor in A431 cells (phosphotyrosine immunoblotting, densitometry). Type of test: cell-based. For orientation: A western blot detects proteins with antibodies after separation by electrophoresis.

The test system of test [2] is Chlamydia trachomatis, strain L-2. Briefly: Experimental generalized chlamydial infection of white mice. Type of test: in vivo.
The test system of another test is herpes type 2 (HSV-2). Briefly: Generalized herpetic infection of white mice. The format is in vivo. The following applies: mice infected with HSV-2.
Where [3] appears, read: 3 days after cyclophosphane 100 mg/kg.
Setting [4] is: 7 days after cyclophosphane 100 mg/kg.
Where [5] appears, read: 14 days after cyclophosphane 100 mg/kg.
The mark [6] stands for this setting: mice infected with Chlamydia trachomatis L-2, 2 LD50, 20 mg/kg s.c. daily for 10 days.
The mark [7] stands for this setting: Zovirax 15 mg/kg daily for 14 days.
Where [8] appears, read: Zovirax 30 mg/kg daily for 14 days.
The mark [9] stands for this setting: mice infected with Chlamydia trachomatis L-2, josamycin 25 mg/kg orally daily for 10 days.
[10] abbreviates: mice infected with Chlamydia trachomatis L-2, josamycin 50 mg/kg orally daily for 10 days.
[11] abbreviates: mice infected with Chlamydia trachomatis L-2, josamycin 100 mg/kg orally daily for 10 days.

Marks after values point to notes of the source that are not given here.

T1 sequence (P00533 25-1210): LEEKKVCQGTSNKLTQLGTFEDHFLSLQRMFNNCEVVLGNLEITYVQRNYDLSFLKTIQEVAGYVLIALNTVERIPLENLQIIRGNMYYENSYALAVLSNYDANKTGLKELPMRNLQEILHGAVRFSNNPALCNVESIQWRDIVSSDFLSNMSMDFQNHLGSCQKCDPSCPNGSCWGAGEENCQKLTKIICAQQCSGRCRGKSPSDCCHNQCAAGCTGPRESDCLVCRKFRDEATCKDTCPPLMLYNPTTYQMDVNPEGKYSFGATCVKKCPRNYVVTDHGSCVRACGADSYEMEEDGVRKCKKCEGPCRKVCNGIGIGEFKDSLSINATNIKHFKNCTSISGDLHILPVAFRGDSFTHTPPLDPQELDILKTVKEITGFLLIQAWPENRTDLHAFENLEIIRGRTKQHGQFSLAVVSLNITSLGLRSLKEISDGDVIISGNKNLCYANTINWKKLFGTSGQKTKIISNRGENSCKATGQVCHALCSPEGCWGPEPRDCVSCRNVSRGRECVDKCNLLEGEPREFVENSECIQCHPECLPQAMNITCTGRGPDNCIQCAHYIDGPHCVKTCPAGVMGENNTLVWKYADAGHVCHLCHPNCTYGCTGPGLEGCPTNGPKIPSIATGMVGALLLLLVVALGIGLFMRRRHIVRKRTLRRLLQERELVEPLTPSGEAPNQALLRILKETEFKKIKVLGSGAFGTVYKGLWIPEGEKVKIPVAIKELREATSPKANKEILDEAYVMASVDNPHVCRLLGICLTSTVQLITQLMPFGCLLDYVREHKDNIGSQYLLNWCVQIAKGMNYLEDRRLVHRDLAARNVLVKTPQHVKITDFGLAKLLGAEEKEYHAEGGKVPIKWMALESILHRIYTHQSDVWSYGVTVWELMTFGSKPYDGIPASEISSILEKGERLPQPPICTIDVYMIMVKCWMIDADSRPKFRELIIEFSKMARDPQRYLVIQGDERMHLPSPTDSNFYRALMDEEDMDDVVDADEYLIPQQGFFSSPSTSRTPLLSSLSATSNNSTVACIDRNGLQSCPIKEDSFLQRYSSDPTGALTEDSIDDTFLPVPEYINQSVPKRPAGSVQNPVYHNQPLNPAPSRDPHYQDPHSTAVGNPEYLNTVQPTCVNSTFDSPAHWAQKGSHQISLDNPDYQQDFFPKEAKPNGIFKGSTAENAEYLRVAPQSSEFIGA

Consider `N[C@@H](CS)C(=O)[O-].[Li+]` [C—Li, lithium salt of cysteine], for which, in the test with male rats with cytopenia (setting [3]), the ESR came to 3.3 ± 0.80 mm/h, the Erythrocytes was 4.0 ± 0.23 10^12/l, the Leukocytes is recorded as 4.38 ± 0.31* 10^9/l and the Lymphocytes was 45 ± 1.6 %. Further, in the test on male rats with cytopenia (setting [3]), the Reticulocytes worked out at 0.1 ± 0.1 %, the Segmented neutrophils is 42 ± 1.6 % and the Thrombocytes is on record as 387 ± 17.4 10^9/l. Besides, in the test on male rats with cytopenia (setting [4]), the ESR turned out to be 3.2 ± 0.80 mm/h, the Erythrocytes is 3.2 ± 0.18 10^12/l, the Leukocytes is given as 4.8 ± 0.18** 10^9/l and the Lymphocytes stood at 22 ± 0.9 %. Further, in the test with male rats with cytopenia (setting [4]), the Reticulocytes came to 1.2 ± 0.2%, the Segmented neutrophils came to 50.4 ± 0.6 % and the Thrombocytes is recorded as 164 ± 10.0** 10^3/l. Besides, in the test on male rats with cytopenia (setting [5]), the ESR came out at 2.7 ± 0.49 mm/h, the Erythrocytes is 5.2 ± 0.26 10^12/l, the Leukocytes was 5.6 ± 0.22** 10^9/l and the Lymphocytes was found to be 72.5 ± 1.4%. Also, in the test on male rats with cytopenia (setting [5]), the Reticulocytes is reported as 1.3 ± 0.3% and the Segmented neutrophils is given as 20.3 ± 2.4 %.

On to `Nc1ncnc2c1ncn2[C@@H]1O[C@H](COP(=O)(O)OP(=O)(O)OP(=O)(O)O)[C@@H](O)[C@H]1O` [ATP], for which, in the test on peritoneal macrophages (rat peritoneal macrophages, normal physiological solution, 200 μM ATP, baseline 75±18 nM), the “[Ca2+]i peak of the Ca2+ signal” value turned out to be 820 ± 105 nM. In addition, the “[Ca2+]i in the plateau phase, on average” value in the test on peritoneal macrophages (rat peritoneal macrophages, normal physiological solution, 4 min after addition of 200 μM ATP) worked out at 460 ± 115 nM.

As for `N[C@@H](CS)C(=O)O` [cysteine], in the test with male rats with cytopenia (setting [3]), the ESR is 2.2 ± 0.30 mm/h, the Erythrocytes is given as 3.0 ± 0.29 10^12/l, the Leukocytes is given as 3.26 ± 0.31* 10^9/l and the Lymphocytes was 68 ± 2.8 %. Also, in the test on male rats with cytopenia (setting [3]), the Reticulocytes was 0.09 ± 0.006 %, the Segmented neutrophils was 17.6 ± 2.1 % and the Thrombocytes is 220 ± 45.3 10^9/l. In the test with male rats with cytopenia (setting [4]), the ESR is 1.9 ± 0.39 mm/h, the Erythrocytes is reported as 3.1 ± 0.33 10^12/l, the Leukocytes is given as 3.47 ± 0.08* 10^9/l and the Lymphocytes worked out at 51.5 ± 1.3 %. Further, in the test on male rats with cytopenia (setting [4]), the Segmented neutrophils came out at 30 ± 1.8 % and the Thrombocytes is recorded as 124 ± 11.0** 10^3/l. In the test with male rats with cytopenia (setting [5]), the ESR stood at 2.1 ± 0.73 mm/h, the Erythrocytes is reported as 4.7 ± 0.21 10^12/l, the Leukocytes is reported as 5.7 ± 0.22** 10^9/l and the Lymphocytes is listed as 72.1 ± 1.6%. In the test on male rats with cytopenia (setting [5]), this compound came in with a Reticulocytes of 1.1 ± 0.4% and a Segmented neutrophils of 13.3 ± 1.9 %. In addition, in test [1] (cysteine 0.015 μmol/ml, periods of action from 1 hour to 4-8 hours, ratio to control), the “activation of the EGF receptor, by a factor of” value is recorded as 8-10. Also, in test [2] (setting [6]), the “% mortality” value is given as 75%; the “% protection, (S)” value is on record as 0%; the Died/total in group is 12/16; the “HML (T), (days), harmonic mean life” value stood at 5.6 days. Also, in the test with herpes type 2 (HSV-2) (20 mg/kg daily for 14 days), the “% mortality” value worked out at 62.5%; the Died/total in group is listed as 10/16; the “ML (days) (T), mean life” value is recorded as 11.4 days. Further, in the test with peritoneal macrophages (rat peritoneal macrophages at rest, 0.015 μmol/ml), the “[Ca2+]i increased to, by mobilization of calcium from the intracellular stores” value was 180 ± 19 nM.

Regarding `Nc1nc2c(ncn2COCCO)c(=O)[nH]1` [Zovirax], in the test on herpes type 2 (HSV-2) (setting [7]), the “% mortality” value is reported as 50%; the “% protection, (S)” value is reported as 12.5%; the Died/total in group is 8/16; the “ML (days) (T), mean life” value came out at 12.8 days. For the same compound, in the test with herpes type 2 (HSV-2) (setting [8]), the “% mortality” value is reported as 0%; the “% protection, (S)” value is given as 62.5%; the Died/total in group is 0/16; the “ML (days) (T), mean life” value is listed as “∞”.

Regarding `O=C([O-])[O-].[Li+].[Li+]` [Li2HCO3, lithium carbonate], in the test with male rats with cytopenia (setting [3]), the ESR came out at 2.4 ± 0.42 mm/h, the Erythrocytes is listed as 3.7 ± 0.21 10^12/l, the Leukocytes is reported as 3.75 ± 0.46* 10^9/l and the Lymphocytes was 62 ± 3.8 %. Besides, in the test with male rats with cytopenia (setting [3]), the Reticulocytes amounted to 0.118 ± 0.01 %, the Segmented neutrophils was 19.7 ± 3.4 % and the Thrombocytes is 256 ± 45.3 10^9/l. Moreover, in the test with male rats with cytopenia (setting [4]), the ESR worked out at 2.0 ± 0.36 mm/h, the Erythrocytes is listed as 3.6 ± 0.29 10^12/l, the Leukocytes was 3.22 ± 0.11* 10^9/l and the Lymphocytes worked out at 50.7 ± 1.6 %. Further, in the test on male rats with cytopenia (setting [4]), the Reticulocytes amounted to 1.1 ± 0.1%, the Segmented neutrophils is listed as 33 ± 1.7 % and the Thrombocytes was 119 ± 12.0** 10^3/l. In addition, in the test on male rats with cytopenia (setting [5]), the ESR was 2.4 ± 0.65 mm/h, the Erythrocytes is reported as 4.9 ± 0.27 10^12/l, the Leukocytes was 5.9 ± 0.26** 10^9/l and the Lymphocytes was 69.3 ± 0.9%. In the test on male rats with cytopenia (setting [5]), this compound yielded a Reticulocytes of 1.4 ± 0.3% and a Segmented neutrophils of 14.9 ± 2.6 %.

With `NCC(=O)O` [glycine], the “influence on the tyrosine kinase activity of the epidermal growth factor receptor” value in test [1] (ligands 0.015 μmol/ml, coordination compounds 0.015 nmol/ml) is reported as “barely detected”.

Regarding `CO[C@@H]1[C@@H](O[C@@H]2O[C@H](C)[C@@H](O[C@H]3C[C@@](C)(O)[C@@H](OC(=O)CC(C)C)[C@H](C)O3)[C@H](N(C)C)[C@H]2O)[C@@H](CC=O)C[C@@H](C)[C@@H](O)/C=C/C=C/C[C@@H](C)OC(=O)C[C@H]1OC(C)=O` [josamycin], in test [2] (setting [9]), the “% mortality” value is 37.5%; the “% protection, (S)” value came out at 37.5%; the Died/total in group is on record as 6/16; the “HML (T), (days), harmonic mean life” value worked out at 12.35 days. In addition, in test [2] (setting [10]), the “% mortality” value is 12.5%; the “% protection, (S)” value was determined as 62.5%; the Died/total in group is given as 2/16; the “HML (T), (days), harmonic mean life” value came out at 83.3 days. In test [2] (setting [11]), the “% mortality” value is given as 0%; the “% protection, (S)” value is on record as 75%; the Died/total in group was 0/16; the “HML (T), (days), harmonic mean life” value was “∞”.
